These results are taken from patent US20200368271A1, “METHOD AND APPARATUS FOR ADMINISTERING GASES INCLUDING NITRIC OXIDE” (priority 2015, published 2020).

In series [1] the test system is rat brain ischemia-reperfusion (I/R). Conditions: acute rat model, inhaled; Ohsawa 2007; cited from earlier work.
Series [2] relates to mice with intratracheal administration of LPS. Nature of the series: LPS-induced lung injury in mice (intratracheal LPS). Format: in vivo. The settings on record: for lung injury after intratracheal LPS: 2% H2 and/or 20 ppm NO for 3 hours starting at 5 minutes or 3 hours after LPS administration; for pulmonary inflammation and cell apoptosis: H2 and/or NO treatment. An excerpt:
Applicants have discovered that NO's effect as an antioxidant may be enhanced by eliminating highly reactive by-products of NO inhalation such as peroxynitrite, by adding H2 to inhaled NO gas.

For another series, the system named is chrondrocytes. Conditions: Yokota 2015; cited from earlier work.
The subject of a further series is neonatal piglets. The settings on record: short-term exposure, Ekekezie 2000; cited from earlier work.
The next series deals with rats exposed to high O2. The settings on record: cited from earlier work.
In a further series the test system is HIF. The settings on record: cited from earlier work.

Regarding `[HH]` [H2, hydrogen], the “brain injury associated with focal ischemia-reperfusion” value in series [1] is recorded as “markedly suppressed”. Also, in series [2], the “lung injury after intratracheal LPS” value is on record as “significantly improved”; the “pulmonary inflammation and cell apoptosis” value was “down-regulated”. In the series with chrondrocytes, the “effect on cells under oxidant injury” value is “cytoprotective effects”.
Consider `[N]=O` [NO, nitric oxide], for which the lung collagen accumulation entry with neonatal piglets is on record as “increases lung collagen accumulation”. Also, in the series with rats exposed to high O2 (rats, inhaled NO), the “survival in high O2 exposure” value is “increase survival”. Further, in series [2], the “lung injury after intratracheal LPS” value is given as “significantly improved”; the “pulmonary inflammation and cell apoptosis” value is given as “down-regulated”. The “effect on HIF at high doses” value in the series on HIF (high doses and after 30 minutes) is listed as “inhibitory”. The “effect on HIF at low dose” value with HIF (low dose, for 30 minutes, during hypoxia) was “stimulates”.
`COC(=O)[C@@H](N)CCCN=C(N)N[N+](=O)[O-]` [Nω-nitro-1-arginine methyl ester]: in the series with rats exposed to high O2 (neonatal rats, compared with control rats), the “survival on exposure to >95% O2 with endogenous NO production blocked” value is reported as “significantly fewer survived”.
Turning to `O=O` [O2, oxygen], the lung collagen accumulation result in the series on neonatal piglets is on record as “increases lung collagen accumulation”.
